Reference: patent US20030129629A1, “Methods and compositions for the identification, assessment, prevention, and therapy of human cancers” (Millennium Pharmaceuticals, Inc., priority 2000, published 2003)
Where two headings read alike, the source gives them in different places.

Tested on: 60 cancer cell lines (NCI 60 cancer cell line series)
Experiment: NCI-DTP in vitro cancer screen, sulforhodamine B (SRB) growth inhibition, 48 hour exposure
Type: cell-based, human
Experimental: Cancer Cell Line Preparation. Sixty cancer cell lines were obtained from the National Cancer Institute Developmental Therapeutics Program (NCI-DTP). Procedures for growing cells and testing compounds have been described previously (Scudiero et al., Cancer Res. 1988, 48:4827-4833; Stinson et al., Anticancer Res.; Myers et al., Electrophoresis 1997, 18:647-653). Cells are plated on day 0 at a density individualized for each cell line so that they will generally be sub-confluent at the end of the assay period. On day 1, a compound is added in the format for a duplicate-well, 5-dose, ten-fold interval dose response study.
No-drug, no-cell and no-growth controls are included. On day 3 the cells are processed for staining with sulforhodamine B (SRB), which reflects the amount of cell mass present at the end of a 48 hour exposure to the test agent. From dose response curves based on the SRB data, various parameters can be determined. […] More precisely, the quantity used in the calculation to be described is the potency measure −log{GI50}.
Activity database (A). […] This subset of compounds was selected from the larger 23,000 compound database available from the DTP. The compounds were selected on the basis of their known mechanism of action and chemical structure. The average potency −log{GI50} was extracted from the comma-delimited text files available through the Web at http://www.nci.nih.gov/intra/lmp/jnwbio.html. Subsequently, these −log{GI50} values were inspected manually and classified as indicating either Low, Medium or High sensitivity to each compound.

N[C@@H](Cc1ccc(N(CCCl)CCCl)cc1)C(=O)O [Melphalan]
1: classification of cell line as Low(1), Medium(2), High(3) sensitivity to compound (Colon HT29(I) CL4001) | classification of cell line as Low(1), Medium(2), High(3) sensitivity to compound (Colon KM12 CL4017) | sensitivity classification Low(1)/Medium(2)/High(3) (NSCLC NCI-H332M CL1017) | sensitivity classification Low(1)/Medium(2)/High(3) (Renal A498 CL9013) | sensitivity classification Low(1)/Medium(2)/High(3) (Renal TK10 CL9024)
3: classification of cell line as Low(1), Medium(2), High(3) sensitivity to compound (Breast MCF7(I) CL5001) | classification of cell line as Low(1), Medium(2), High(3) sensitivity to compound (Leukemia CCRF-CEM(I) CL7003) | classification of cell line as Low(1), Medium(2), High(3) sensitivity to compound (Leukemia HL-60(I) CL7008) | classification of cell line as Low(1), Medium(2), High(3) sensitivity to compound (Leukemia MOLT-4 CL7006) | classification of cell line as Low(1), Medium(2), High(3) sensitivity to compound (Leukemia SR CL7019) | classification of cell line as Low(1), Medium(2), High(3) sensitivity to compound (Melanoma UACC-62 CL10020) | sensitivity classification Low(1)/Medium(2)/High(3) (NSCLC NCI-H460 CL1021) | sensitivity classification Low(1)/Medium(2)/High(3) (Renal ACHN CL9023) | sensitivity classification Low(1)/Medium(2)/High(3) (Renal CAKI-1 CL9015)
2: classification of cell line as Low(1), Medium(2), High(3) sensitivity to compound | classification of cell line as Low(1), Medium(2), High(3) sensitivity to compound (Breast BT-549 CL5013) | classification of cell line as Low(1), Medium(2), High(3) sensitivity to compound (Breast HS-578T CL5006) | classification of cell line as Low(1), Medium(2), High(3) sensitivity to compound (Breast MCF7/ADRr CL5002) | classification of cell line as Low(1), Medium(2), High(3) sensitivity to compound (Breast MDA-MB-231 CL5005) | classification of cell line as Low(1), Medium(2), High(3) sensitivity to compound (Breast MDA-MB-435 CL5011) | classification of cell line as Low(1), Medium(2), High(3) sensitivity to compound (Breast MDA-N CL5012) | classification of cell line as Low(1), Medium(2), High(3) sensitivity to compound (Breast T-47D CL5014) | classification of cell line as Low(1), Medium(2), High(3) sensitivity to compound (Colon COLO-250 CL4010) | classification of cell line as Low(1), Medium(2), High(3) sensitivity to compound (Colon HCC-2998 CL4002) | classification of cell line as Low(1), Medium(2), High(3) sensitivity to compound (Colon HCT-15 CL4015) | classification of cell line as Low(1), Medium(2), High(3) sensitivity to compound (Colon HCT-116 CL4003) | classification of cell line as Low(1), Medium(2), High(3) sensitivity to compound (Colon SW-620 CL4009) | classification of cell line as Low(1), Medium(2), High(3) sensitivity to compound (Leukemia K562(I) CL7005) | classification of cell line as Low(1), Medium(2), High(3) sensitivity to compound (Leukemia RPMI-8226(I) CL7010) | classification of cell line as Low(1), Medium(2), High(3) sensitivity to compound (Melanoma LOX IMVI CL10001) | classification of cell line as Low(1), Medium(2), High(3) sensitivity to compound (Melanoma M14 CL10014) | classification of cell line as Low(1), Medium(2), High(3) sensitivity to compound (Melanoma MALME-3M CL10002) | classification of cell line as Low(1), Medium(2), High(3) sensitivity to compound (Melanoma SK-MEL-2 CL10005) | classification of cell line as Low(1), Medium(2), High(3) sensitivity to compound (Melanoma SK-MEL-5 CL10007) | classification of cell line as Low(1), Medium(2), High(3) sensitivity to compound (Melanoma SK-MEL-28 CL10008) | classification of cell line as Low(1), Medium(2), High(3) sensitivity to compound (Melanoma UACC-257 CL10021) | classification of cell line as Low(1), Medium(2), High(3) sensitivity to compound (NSCLC A549/ATCC CL1004) | classification of cell line as Low(1), Medium(2), High(3) sensitivity to compound (NSCLC EKVX CL1008) | classification of cell line as Low(1), Medium(2), High(3) sensitivity to compound (NSCLC HOP-62 CL1026) | classification of cell line as Low(1), Medium(2), High(3) sensitivity to compound (NSCLC HOP-92 CL1029) | sensitivity classification Low(1)/Medium(2)/High(3) (NSCLC NCI-H23(I) CL1001) | classification of cell line as Low(1), Medium(2), High(3) sensitivity to compound (NSCLC NCI-H226 CL1013) | sensitivity classification Low(1)/Medium(2)/High(3) (NSCLC NCI-H522 CL1003) | sensitivity classification Low(1)/Medium(2)/High(3) (Ovarian IGROV1 CL6010) | sensitivity classification Low(1)/Medium(2)/High(3) (Ovarian OVCAR-3 CL6001) | sensitivity classification Low(1)/Medium(2)/High(3) (Ovarian OVCAR-4 CL6002) | sensitivity classification Low(1)/Medium(2)/High(3) (Ovarian OVCAR-5 CL6003) | sensitivity classification Low(1)/Medium(2)/High(3) (Ovarian OVCAR-8 CL6005) | sensitivity classification Low(1)/Medium(2)/High(3) (Ovarian SK-OV-3 CL6011) | sensitivity classification Low(1)/Medium(2)/High(3) (Prostate DU-145 CL11003) | sensitivity classification Low(1)/Medium(2)/High(3) (Prostate PC-3(I) CL11001) | sensitivity classification Low(1)/Medium(2)/High(3) (Renal 786-0 CL9018) | sensitivity classification Low(1)/Medium(2)/High(3) (Renal RXF-393 CL9016) | sensitivity classification Low(1)/Medium(2)/High(3) (Renal SN12C CL9008) | sensitivity classification Low(1)/Medium(2)/High(3) (Renal UO-31 CL9004)
